The text below walks through data of patent US8268635B2, “Methods of identifying agents that selectively activate p38 and/or NKkB signaling” (priority 2006, dated 2012).

Entries after “also recorded” stand apart in the source; their conditions may differ. Where no end group is shown, it is not given here.

The subject of test [1] is JNK. In words: JNK activity in HUVEC (GST-jun solid phase assay). It is filed as cell-based, human. Conditions: 15 min; TNF 100 and 1000 U/ml, TNF70-80 1-50 μM. The method, then:
(§1) The level of myelin basic protein phosphorylation was quantitated by an Instant Imager.
(§2) KHS (hereon referred to as “GCKR”) activity was assayed as described previously using myelin basic protein as a substrate (Shi, C. S., Leonardi, A., Kyriakis, J., Siebenlist, U., and Kerhl, J. H. (1999) J. Immunol. 163: 3279-3285). ASK-1 activation was determined in immunoprecipitates of ASK-1 by autophosphorylation (Kyriakis, J. M., and Auruch, J. (2001) Physiol. Rev. 81: 807-869). p38 and ERK activities were determined as described using myelin basic protein as a substrate (Hii, C. S., Huang, Z. H., Bilney, A., Costabile, M., Murray, A. W., Rathjen, D. A., Der, C. J., and Ferrante, A. (1998) J. Biol. Chem. 273: 19277-19282). […] A solid phase assay using glutathione-S-transferase (GST)-conjugated-jun (1-79) was employed to assay JNK activity (Hii, C. S., Huang, Z. H., Bilney, A., Costabile, M., Murray, A. W., Rathjen, D. A., Der, C. J., and Ferrante, A. (1998) J. Biol. Chem. 273: 19277-19282). Phosphorylated ASK-1, myelin basic protein and GST-jun (1-79) were fractionated on 8, 16 and 12% SDS polyacrylamide gels, respectively, and the bands were detected and radioactivity determined using an Instant Imager (Packard Instruments, Canberra, Australia).

The test system of test [2] is ERK1/ERK2. Kind of test: ERK1/ERK2 dual phosphorylation in HUVEC (western blot). As to conditions: 15 min; TNF 100 U/ml, TNF70-80 10 μM. In kind it is cell-based, human. As for the experimental part:
as §1
Western blot analysis was conducted as described previously (Hii, C. S., Huang, Z. H., Bilney, A., Costabile, M., Murray, A. W., Rathjen, D. A., Der, C. J., and Ferrante, A. (1998) J. Biol. Chem. 273: 19277-19282). Briefly, equal amounts of denatured protein from each lysate were separated by 12% SDS polyacrylamide gel electrophoresis (PAGE). The proteins were electrophoretically transferred to nitrocellulose membranes (Schleicher and Schuell, Keene, N. H., USA)(3 h at 40V). […] Immune complexes were visualised by enhanced chemiluminescence (Hii, C. S., Huang, Z. H., Bilney, A., Costabile, M., Murray, A. W., Rathjen, D. A., Der, C. J., and Ferrante, A. (1998) J. Biol. Chem. 273: 19277-19282).
For orientation: In western blotting, separated proteins are transferred to a membrane and probed.

Test [3] deals with p38. In words: p38 activity in HUVEC (immunoprecipitation, myelin basic protein substrate). In kind it is cell-based, human. Conditions: 5 min; TNF 1,000 U/ml, peptides 10 μM. As for the experimental part:
as §1, §2

The next test deals with E-selectin. Kind of test: E-selectin expression on endothelial cells. In kind it is cell-based, human. As to conditions: TNF 100 or 1000 U/ml, TNF70-80 1-50 μM; data not presented.
The subject of test [4] is JNK. In words: JNK activation in neutrophils in suspension. It is filed as cell-based, human. As to conditions: 15 min; TNF 100 U/ml, TNF70-80 10 μM, anisomycin 2.5 μg/ml. As for the experimental part:
(§3) The cells were lysed and the lysate assessed by western blot analysis for the level of dual-phosphorylated ERK1/ERK2 (top panel) and ERK2 protein (bottom panel). […] The level of myelin basic protein phosphorylation was quantitated by an Instant Imager.
(§4) Neutrophils were prepared from peripheral blood of healthy donors by a rapid single-step technique (Kumaratilake, L. M., Rathjen, D. A., Mack, P., Widmer, F., Prasertsiriroj, V., and Ferrante, A. (1995) J. Clin. Invest. 95: 2315-2323) using Hypaque-Ficoll and according to the institution's guidelines on human ethics. […]
(§5) KHS (hereon referred to as “GCKR”) activity was assayed as described previously using myelin basic protein as a substrate (Shi, C. S., Leonardi, A., Kyriakis, J., Siebenlist, U., and Kerhl, J. H. (1999) J. Immunol. 163: 3279-3285). ASK-1 activation was determined in immunoprecipitates of ASK-1 by autophosphorylation (Kyriakis, J. M., and Auruch, J. (2001) Physiol. Rev. 81: 807-869). p38 and ERK activities were determined as described using myelin basic protein as a substrate (Hii, C. S., Huang, Z. H., Bilney, A., Costabile, M., Murray, A. W., Rathjen, D. A., Der, C. J., and Ferrante, A. (1998) J. Biol. Chem. 273: 19277-19282). […]

Test [5] concerns ERK1/ERK2. Kind of test: ERK1/ERK2 activation in neutrophils in suspension. In kind it is cell-based, human. Conditions: TNF, TNF70-80 15 min; PMA 100 nM 5 min. The method, then:
as §3, §4, §5

For test [6], the system named is p38. In words: p38 kinase activity in human neutrophils. It is filed as cell-based. As to conditions: 5 min; TNF 100 or 1000 U/ml, TNF70-80 10-50 μM. The method, then:
as §3
(§6) Neutrophils were prepared from peripheral blood of healthy donors by a rapid single-step technique (Kumaratilake, L. M., Rathjen, D. A., Mack, P., Widmer, F., Prasertsiriroj, V., and Ferrante, A. (1995) J. Clin. Invest. 95: 2315-2323) using Hypaque-Ficoll and according to the institution's guidelines on human ethics. […] These were either used as cells in suspension or as adhered neutrophils by adding the cells to plasma coated plates as previously described (Powell, W., Gravel, S., Halwani, F., Hii, C. S., Huang, Z. H., Tan, A. M., and Ferrante, A. (1997) J. Immunol. 159: 2952-2959).
as §2, §1

For another test, the system named is ERK. In words: ERK activation in adherent neutrophils. In kind it is cell-based, human. Conditions: neutrophils pre-adhered to plasma-coated dishes; 15 min; TNF 1000 U/ml, TNF70-80 10 μM. The method, then: Neutrophils were prepared from peripheral blood of healthy donors by a rapid single-step technique (Kumaratilake, L. M., Rathjen, D. A., Mack, P., Widmer, F., Prasertsiriroj, V., and Ferrante, A. (1995) J. Clin. Invest. 95: 2315-2323) using Hypaque-Ficoll and according to the institution's guidelines on human ethics. […] These were either used as cells in suspension or as adhered neutrophils by adding the cells to plasma coated plates as previously described (Powell, W., Gravel, S., Halwani, F., Hii, C. S., Huang, Z. H., Tan, A. M., and Ferrante, A. (1997) J. Immunol. 159: 2952-2959). […]
as §5

Test [7] has as its system JNK. In words: JNK activity in adherent neutrophils. As to conditions: neutrophils pre-adhered to plasma-coated dishes; 15 min; TNF 1000 U/ml, TNF70-80 10 μM. It is filed as cell-based, human. The method, then:
as §6, §5

A further test concerns neutrophils. Kind of test: Neutrophil superoxide production, lucigenin chemiluminescence assay. In kind it is cell-based, human. Conditions: agent alone as stimulus.
The test system of test [8] is p38. In words: p38 activation in 70Z/3 cells transfected with hTNFR1 constructs. In kind it is cell-based, mouse. As for the experimental part: The cells were then lysed, protein contents quantified and subjected to p38 kinase assay by Western blot. The results are presented as the mean+−sem of 3 experiments.
The cells were maintained in RPMI-1640 medium with 4.5 g/L glucose, 2 mM L-glutamine, […] 2-mercaptoethanol and 10% FCS in an atmosphere of 95% air and 5% CO2. Cells were plated onto 10 cm plates at 4×10^7 cells in 15 ml culture medium. Before performing transient transfection, plasmid DNA (hTNFR1), kindly provided by Dr M. Kronke, Institute of Medical Microbiology and Hygiene, Medical Center University of Cologne, Koln, Germany (Adam, D., Wiegmann, K., Adam-Klages, S., Ruff A., and Kronke, M. (1996) J. Biol. Chem. 271: 14617-22), (20 μg in 1 ml of RPMI1640) was mixed with LipofectAMINE 2000 (Invitrogen) (60 μl in 1 ml of RPMI) and the mixture were left at room temperature for 20 min. The mixture was directly added to the cells and incubated for 24 h. The cells were washed twice with HBSS before use.

In test [9] the test system is ASK-1. Kind of test: ASK-1 autophosphorylation in HEK293T cells. In kind it is cell-based, human. As to conditions: 3 or 7 min. As for the experimental part:
(§7) GCKR was immunoprecipitated from cell lysates and activity assayed using myelin basic protein (MBP) as the substrate. […] Activation of ASK-1 was determined by kinase autophosphorylation.
as §2

The test system of test [10] is ASK-1. Kind of test: ASK-1 autophosphorylation in neutrophils. It is filed as cell-based, human. The method, then:
as §7, §2

A further test relates to macrophage. Conditions: previous comparisons; cited from earlier work.

With PSTHVLITHTI-OH [TNF70-80], the “activity of JNK in HUVEC” value in the test on JNK [1] is “failed to stimulate the activity of JNK”. Moreover, in the test with ERK1/ERK2 [2], the “dual phosphorylation of the ERKs in HUVEC” value is given as “caused only negligible phosphorylation of the ERKs”. Besides, in the test with p38 [3], the “activity of p38 in HUVEC” value is on record as “stimulated the activity of p38”. For the same substance, the “expression of E-selectin on endothelial cells” value in the test on E-selectin was “but not TNF70-80 (1-50 μM) stimulated the expression of E-selectin”. The “activity/phosphorylation of JNK in neutrophils in suspension” value in the test with JNK [4] is “neither TNF nor TNF70-80 stimulated the activity of either JNK or ERK”. For the same substance, the “activity/dual phosphorylation of ERK in neutrophils in suspension” value with ERK1/ERK2 [5] is listed as “neither TNF nor TNF70-80 stimulated the activity of either JNK or ERK”. The “activity of p38 in neutrophils in suspension” value with p38 [6] was “enhanced the activity of p38”. Also, in the test with ERK, the “ERK activation in adherent neutrophils” value is listed as “failed to stimulate the activation of the ERKs”. The “activity of JNK in adherent neutrophils” value in the test on JNK [7] is listed as “but not TNF70-80 stimulated the activity of JNK”. Besides, the “stimulation of neutrophil respiratory burst / superoxide production” value in the test on neutrophils is listed as “stimulated a respiratory burst”. In the test with p38 [8], the “p38 activity in 70Z cells transfected with an empty vector” value was “did not stimulate the activity of p38”; the “p38 activity in 70Z cells, TNF receptor with C1-C3 deleted” value is “still able to stimulate p38 activity”; the “p38 activity in 70Z cells, TNF receptor with C1-C4 deleted” value is listed as “retained its ability to stimulate p38 activity”; the “p38 activity in 70Z cells, TNF receptor with C1 domain deleted” value was “able to stimulate the activity of p38”. For the same substance, the “p38 activation in 70Z/3 cells transfected with wild type hTNFR1” value in the test on p38 [8] (5 min, TNF 1000 U/ml, peptides 10 μM) is reported as “caused the activation of p38; also recorded: stimulated the activity of p38 in cells transfected with wild type receptors”. Moreover, in the test on p38 [8] (cells lacking TNFR, 5 min, TNF 1000 U/ml, peptides 10 μM), the “p38 activation in non-transfected 70Z/3 cells” value is reported as “neither TNF nor TNF70-80 activated p38”. Also, the “ASK-1 autophosphorylation in HEK293T cells” value in the test on ASK-1 [9] is recorded as “did not affect the level of ASK-1 phosphorylation”. Besides, the “ASK-1 phosphorylation in non-adherent neutrophils” value in the test with ASK-1 [10] (data not shown) is recorded as “not altered”. In the test on ASK-1 [10] (plasma-coated dishes, 3 or 7 min), the “ASK-1 phosphorylation in adherent neutrophils” value is on record as “neither TNF nor TNF70-80 increased the level of ASK-1 phosphorylation”. In the test on macrophage, the “concentration that equates to 1000 U/ml of TNF in ability to stimulate nitric oxide production in macrophage” value is 5.0 µg/mL.
